Experimental data from patent US9346786B2, “Pyrrolidine compounds” (Hoffmann-La Roche Inc., priority 2009, dated 2016).

molecular target: recombinant human NK3 receptor (Homo sapiens (Human), UniProt P29371); test: biochemical; assay type: binding; details: not given
Description: [^3H]SR142801 Competition Binding Assay
hNK3 receptor binding experiment were performed using [^3H]SR142801 (Catalog No. TRK1035, specific activity: 74.0 Ci/mmol, Amersham, GE Healthcare UK limited, Buckinghamshire, UK) and membrane isolated from HEK293 cells transiently expressing recombinant human NK3 receptor. After thawing, the membrane homogenates were centrifuged at 48,000×g for […] at 4° C., the pellets were resuspended in the 50 mM Tris-HCl, 4 mM MnCl2, 1 μM phosphoramidon, 0.1% BSA binding buffer at pH 7.4 to a final assay concentration of 5 μg protein/well. For inhibition experiments, membranes were incubated with [^3H]SR142801 at a concentration equal to KD value of radioligand and 10 concentrations of the inhibitory compound (0.0003-10 μM) (in a total reaction volume of 500 μl) for 75 min at room temperature (RT). At the end of the incubation, membranes were filtered onto unitfilter (96-well white microplate with bonded GF/C filter preincubated 1 h in 0.3% PEI+0.3% BSA, Packard BioScience, Meriden, Conn.) with a Filtermate 196 harvester (Packard BioScience) and washed 4 times with ice-cold 50 mM Tris-HCl, pH 7.4 buffer. Nonspecific binding was measured in the presence of 10 μM SB222200 for both radioligands. The radioactivity on the filter was counted (5 min) on a Packard Top-count microplate scintillation counter with quenching correction after addition of 45 μl of microscint 40 (Canberra Packard S.A., Zürich, Switzerland) and shaking for 1 h. Inhibition curves were fitted according to the Hill equation: y=100/(1+(x/IC50)^nH), where nH=slope factor using Excel-fit 4 software (Microsoft). IC50 values were derived from the inhibition curve and the affinity constant (Ki) values were calculated using the Cheng-Prussoff equation Ki=IC50/(1+[L]/KD) where [L] is the concentration of radioligand and KD is its dissociation constant at the receptor, derived from the saturation isotherm. All experiments were performed in duplicate and the mean±standard error (SEM) of the individual Ki values was calculated.

Chain of recombinant human NK3 receptor (P29371 whole entry): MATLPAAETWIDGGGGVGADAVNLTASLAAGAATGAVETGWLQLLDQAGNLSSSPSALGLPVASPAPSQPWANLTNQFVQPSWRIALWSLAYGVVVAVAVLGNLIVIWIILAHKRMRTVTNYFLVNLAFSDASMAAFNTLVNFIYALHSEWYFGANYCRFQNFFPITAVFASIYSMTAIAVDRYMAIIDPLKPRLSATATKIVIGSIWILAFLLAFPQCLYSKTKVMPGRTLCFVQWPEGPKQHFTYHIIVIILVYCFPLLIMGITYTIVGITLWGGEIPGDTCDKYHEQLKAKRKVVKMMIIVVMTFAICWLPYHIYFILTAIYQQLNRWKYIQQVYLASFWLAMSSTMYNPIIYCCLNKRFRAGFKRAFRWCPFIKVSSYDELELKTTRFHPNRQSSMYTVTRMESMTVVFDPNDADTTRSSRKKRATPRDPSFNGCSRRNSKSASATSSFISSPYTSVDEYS

Question: `CCN(C(=O)Oc1ccc(F)cc1)[C@@H]1CN(C(=O)C2CCN(C(=O)C3(C)CC3)CC2)C[C@H]1c1ccc(Cl)c(Cl)c1` (racemic) [Example 1, rac-{(3S,4R)-4-(3,4-Dichloro-phenyl)-1-[1-(1-methyl-cyclopropanecarbonyl)-piperidine-4-carbonyl]-pyrrolidin-3-yl}-ethyl-carbamic acid 4-fluoro-phenyl ester] was tested. Which Ki did it give?
Answer: 1 nM

same assay, conditions: [3H]SR142801, membranes of HEK293 cells transiently expressing recombinant human NK3 receptor; read-out: Data Ki (hNK-3 receptor affinity)

Question: With `CC(C)N(C(=O)Oc1ccc(F)cc1)[C@@H]1CN(C(=O)C2CCN(C(=O)C3(C)CC3)CC2)C[C@H]1c1ccc(Cl)c(Cl)c1` (racemic) [Example 2, rac-{(3S,4R)-4-(3,4-Dichloro-phenyl)-1-[1-(1-methyl-cyclopropanecarbonyl)-piperidine-4-carbonyl]-pyrrolidin-3-yl}-isopropyl-carbamic acid 4-fluoro-phenyl ester] as the molecule, how does the Ki read?
Answer: 46 nM

Question: For `CC(C)CN(C(=O)Oc1ccc(F)cc1)[C@@H]1CN(C(=O)C2CCN(C(=O)C3(C)CC3)CC2)C[C@H]1c1ccc(Cl)c(Cl)c1` (racemic) [Example 3, rac-{(3S,4R)-4-(3,4-Dichloro-phenyl)-1-[1-(1-methyl-cyclopropanecarbonyl)-piperidine-4-carbonyl]-pyrrolidin-3-yl}-isobutyl-carbamic acid 4-fluoro-phenyl ester], which Ki is on record?
Answer: 276 nM

Question: With `CC1(C(=O)N2CCC(C(=O)N3C[C@@H](N(C(=O)Oc4ccc(F)cc4)C4CC4)[C@H](c4ccc(Cl)c(Cl)c4)C3)CC2)CC1` (racemic) [Example 4, rac-{(3S,4R)-4-(3,4-Dichloro-phenyl)-1-[1-(1-methyl-cyclopropanecarbonyl)-piperidine-4-carbonyl]-pyrrolidin-3-yl}-cyclopropyl-carbamic acid 4-fluoro-phenyl ester] as the molecule, how does the Ki read?
Answer: 10 nM

Question: With `CCN(C(=O)Oc1ccc(F)cc1)[C@H]1CN(C(=O)C2CCN(c3ncc(C#N)cn3)CC2)C[C@@H]1c1ccc(Cl)cc1` [Example 7, {(3R,4S)-4-(4-Chloro-phenyl)-1-[1-(5-cyano-pyrimidin-2-yl)-piperidine-4-carbonyl]-pyrrolidin-3-yl}-ethyl-carbamic acid 4-fluoro-phenyl ester] as the molecule, how does the Ki read?
Answer: 89 nM

Question: With `CCN(C(=O)Oc1ccc(F)cc1)[C@H]1CN(C(=O)C2CCN(c3ccc(C(C)=O)cn3)CC2)C[C@@H]1c1ccc(Cl)cc1` [Example 8, [(3R,4S)-1-(5′-Acetyl-3,4,5,6-tetrahydro-2H-[1,2′]bipyridinyl-4-carbonyl)-4-(4-chloro-phenyl)-pyrrolidin-3-yl]-ethyl-carbamic acid 4-fluoro-phenyl ester] as the molecule, how does the Ki read?
Answer: 55 nM

Question: For `CCN(C(=O)Oc1ccc(F)cc1)[C@H]1CN(C(=O)C2CCN(c3ccc(S(C)(=O)=O)cn3)CC2)C[C@@H]1c1ccc(Cl)cc1` [Example 10, [(3R,4S)-4-(4-Chloro-phenyl)-1-(5′-methanesulfonyl-3,4,5,6-tetrahydro-2H-[1,2′]bipyridinyl-4-carbonyl)-pyrrolidin-3-yl]-ethyl-carbamic acid 4-fluoro-phenyl ester], which Ki is on record?
Answer: 65 nM

Question: Which Ki does the source give for `CCN(C(=O)Oc1ccc(F)cc1)[C@H]1CN(C(=O)C2CCN(c3ccc(C#N)nn3)CC2)C[C@@H]1c1ccc(Cl)cc1` [Example 12, {(3R,4S)-4-(4-Chloro-phenyl)-1-[1-(6-cyano-pyridazin-3-yl)-piperidine-4-carbonyl]-pyrrolidin-3-yl}-ethyl-carbamic acid 4-fluoro-phenyl ester] here?
Answer: 23 nM

Question: With `CCN(C(=O)Oc1ccc(F)cc1)[C@@H]1CN(C(=O)C2CCN(c3ncc(C#N)cn3)CC2)C[C@H]1c1ccc(Cl)cc1` [Example 13, {(3S,4R)-4-(4-Chloro-phenyl)-1-[1-(5-cyano-pyrimidin-2-yl)-piperidine-4-carbonyl]-pyrrolidin-3-yl}-ethyl-carbamic acid 4-fluoro-phenyl ester] as the molecule, how does the Ki read?
Answer: 8 nM

Question: How did the Ki turn out when `CCN(C(=O)Oc1ccc(F)cc1)[C@@H]1CN(C(=O)C2CCN(c3ccc(C(C)=O)cn3)CC2)C[C@H]1c1ccc(Cl)cc1` [Example 14, [(3S,4R)-1-(5′-Acetyl-3,4,5,6-tetrahydro-2H-[1,2′]bipyridinyl-4-carbonyl)-4-(4-chloro-phenyl)-pyrrolidin-3-yl]-ethyl-carbamic acid 4-fluoro-phenyl ester] was run?
Answer: 3 nM

Question: `CCN(C(=O)Oc1ccc(F)cc1)[C@@H]1CN(C(=O)C2CCN(c3ccc(S(C)(=O)=O)cn3)CC2)C[C@H]1c1ccc(Cl)cc1` [Example 16, [(3S,4R)-4-(4-Chloro-phenyl)-1-(5′-methanesulfonyl-3,4,5,6-tetrahydro-2H-[1,2′]bipyridinyl-4-carbonyl)-pyrrolidin-3-yl]-ethyl-carbamic acid 4-fluoro-phenyl ester] was tested. Which Ki did it give?
Answer: 2 nM

Question: Which Ki does the source give for `CCN(C(=O)Oc1ccc(F)cc1)[C@@H]1CN(C(=O)C2CCN(c3ccc(C#N)nn3)CC2)C[C@H]1c1ccc(Cl)cc1` [Example 18, {(3S,4R)-4-(4-Chloro-phenyl)-1-[1-(6-cyano-pyridazin-3-yl)-piperidine-4-carbonyl]-pyrrolidin-3-yl}-ethyl-carbamic acid 4-fluoro-phenyl ester] here?
Answer: 2 nM

Question: With `CCN(C(=O)Oc1ccc(F)cc1)[C@@H]1CN(C(=O)C2CCN(c3ccc(C#N)cn3)CC2)C[C@H]1c1ccc(Cl)cc1` [Example 21, [(3S,4R)-4-(4-Chloro-phenyl)-1-(5′-cyano-3,4,5,6-tetrahydro-2H-[1,2′]bipyridinyl-4-carbonyl)-pyrrolidin-3-yl]-ethyl-carbamic acid 4-fluoro-phenyl ester] as the molecule, how does the Ki read?
Answer: 2 nM

same assay, conditions: read-out: Data Ki (hNK-3 receptor affinity)

Question: For `CCN(C(=O)Oc1ccc(F)cc1)[C@@H]1CN(C(=O)C2CCN(C(=O)C3(C)CC3)CC2)C[C@H]1c1ccc(Cl)c(Cl)c1` [Example 5, {(3S,4R)-4-(3,4-Dichloro-phenyl)-1-[1-(1-methyl-cyclopropanecarbonyl)-piperidine-4-carbonyl]-pyrrolidin-3-yl}-ethyl-carbamic acid 4-fluoro-phenyl ester], which Ki is on record?
Answer: 2 nM

Question: Which Ki does the source give for `CCN(C(=O)Oc1ccc(F)cc1)[C@H]1CN(C(=O)C2CCN(C(=O)C3(C)CC3)CC2)C[C@@H]1c1ccc(Cl)c(Cl)c1` [Example 6, {(3R,4S)-4-(3,4-Dichloro-phenyl)-1-[1-(1-methyl-cyclopropanecarbonyl)-piperidine-4-carbonyl]-pyrrolidin-3-yl}-ethyl-carbamic acid 4-fluoro-phenyl ester] here?
Answer: 62 nM

Question: With `CCN(C(=O)Oc1ccc(F)cc1)[C@H]1CN(C(=O)C2CCN(c3cc(C#N)ccn3)CC2)C[C@@H]1c1ccc(Cl)cc1` [Example 9, [(3R,4S)-4-(4-Chloro-phenyl)-1-(4′-cyano-3,4,5,6-tetrahydro-2H-[1,2′]bipyridinyl-4-carbonyl)-pyrrolidin-3-yl]-ethyl-carbamic acid 4-fluoro-phenyl ester] as the molecule, how does the Ki read?
Answer: 138 nM

Question: With `CCN(C(=O)Oc1ccc(F)cc1)[C@H]1CN(C(=O)C2CCN(c3cnc(C#N)cn3)CC2)C[C@@H]1c1ccc(Cl)cc1` [Example 11, {(3R,4S)-4-(4-Chloro-phenyl)-1-[1-(5-cyano-pyrazin-2-yl)-piperidine-4-carbonyl]-pyrrolidin-3-yl}-ethyl-carbamic acid 4-fluoro-phenyl ester] as the molecule, how does the Ki read?
Answer: 36 nM

Question: For `CCN(C(=O)Oc1ccc(F)cc1)[C@@H]1CN(C(=O)C2CCN(c3cc(C#N)ccn3)CC2)C[C@H]1c1ccc(Cl)cc1` [Example 15, [(3S,4R)-4-(4-Chloro-phenyl)-1-(4′-cyano-3,4,5,6-tetrahydro-2H-[1,2′]bipyridinyl-4-carbonyl)-pyrrolidin-3-yl]-ethyl-carbamic acid 4-fluoro-phenyl ester], which Ki is on record?
Answer: 8 nM

Question: With `CCN(C(=O)Oc1ccc(F)cc1)[C@@H]1CN(C(=O)C2CCN(c3cnc(C#N)cn3)CC2)C[C@H]1c1ccc(Cl)cc1` [Example 17, {(3S,4R)-4-(4-Chloro-phenyl)-1-[1-(5-cyano-pyrazin-2-yl)-piperidine-4-carbonyl]-pyrrolidin-3-yl}-ethyl-carbamic acid 4-fluoro-phenyl ester] as the molecule, how does the Ki read?
Answer: 2 nM

Question: How did the Ki turn out when `CCN(C(=O)Oc1ccc(F)cc1)[C@H]1CN(C(=O)C2CCN(c3ccc(C(F)(F)F)cn3)CC2)C[C@@H]1c1ccc(Cl)cc1` [Example 19, [(3R,4S)-4-(4-Chloro-phenyl)-1-(5′-trifluoromethyl-3,4,5,6-tetrahydro-2H-[1,2′]bipyridinyl-4-carbonyl)-pyrrolidin-3-yl]-ethyl-carbamic acid 4-fluoro-phenyl ester] was run?
Answer: 88 nM

Question: With `CCN(C(=O)Oc1ccc(F)cc1)[C@@H]1CN(C(=O)C2CCN(c3ccc(C(F)(F)F)cn3)CC2)C[C@H]1c1ccc(Cl)cc1` [Example 20, [(3S,4R)-4-(4-Chloro-phenyl)-1-(5′-trifluoromethyl-3,4,5,6-tetrahydro-2H-[1,2′]bipyridinyl-4-carbonyl)-pyrrolidin-3-yl]-ethyl-carbamic acid 4-fluoro-phenyl ester] as the molecule, how does the Ki read?
Answer: 3 nM
